Assay results taken from paper PMC314469, “Protein Interaction Networks by Proteome Peptide Scanning” (PLoS Biology, 2004).

Each sequence was assayed on Myo5 SH3 domain (assay: SPOT analysis of cellulose-bound peptides (WISE), Myo5 SH3 domain (Dataset S4)). Settings: SPOT analysis of cellulose-bound 14-mer yeast proteome peptides, Myo5 SH3 domain; normalized value; mean where the peptide was synthesized more than once.
Type: binding, Saccharomyces cerevisiae

Row | Sequence | The normalized value in BLU units
1 | NFPSLIDPHVPTYG | 97.4 BLU
2 | KQLKKQGPKRPSSA | 468.1 BLU
3 | TSCTKEKPTPPTTT | 118.4 BLU
4 | NAPERAVPILPPRN | 740.9 BLU
5 | TGKPRKTPRPPFPF | 1192.8 BLU
6 | VPDSYKPPKNPIVF | 829.4 BLU
7 | HPEYLSLPFEPYCF | 212.9 BLU
8 | KLAPLNCPSLPTTN | 211.6 BLU
9 | LASPFHDPILPRRT | 288.3 BLU
10 | SVDPKNYPDAPLEG | 91.1 BLU
11 | FLTVYILPKNPFRV | 1470.4 BLU
12 | SLKNRDGPITPSTI | 215.1 BLU
13 | YASQYSRPDGPILL | 113.5 BLU
14 | MEEPFIWPEEPRPD | 79.7 BLU
15 | SVNIKCWPLKPSNF | 56.5 BLU
16 | TLFRFIVPFNPYFS | 881.8 BLU
17 | AEAYLVTPEEPAKN | 39.6 BLU
18 | VPSAFTAPPVPTKK | 358.2 BLU
19 | QLVTLISPYDPNFK | 177.5 BLU
20 | GLRELFLPGMPGLM | 159.7 BLU
21 | HATLYWAPVSPLKS | 151.3 BLU
22 | GPSQFAPPPPPPGV | 20435.9 BLU
23 | YPAKLRIPETPVKK | 219.9 BLU
24 | ELRTLFVPLIPSVT | 293.5 BLU
25 | KLALHQYPNFPSEG | 130.3 BLU
26 | KELNLTGPKVPEDI | 102.4 BLU
27 | NALKLIHPFMPFIS | 170.3 BLU
28 | TPYQLLSPILPVLL | 287.1 BLU
29 | SPLSWSGPLTPPTF | 168.0 BLU

Same assay, conditions: SPOT analysis of cellulose-bound peptides probed with Myo5 SH3 domain; normalized value

Row | Sequence | The normalized value in BLU units (SPOT analysis, Myo5 SH3)
30 | APKYYVPPGIPTND | 10351.6 BLU
31 | HEKLYHNPSLPAQS | 78.1 BLU
32 | KLPKLNVPLNPKGK | 304.7 BLU
33 | DARPFLKPVDPIAL | 126.2 BLU
34 | FPFYLSFPFCPSFP | 759.9 BLU
35 | EPPSWKPPDLPIRL | 86972.2 BLU
36 | EAHQHHQPPEPQPY | 0.0 BLU
37 | SPSDFNKPDLPELI | 316.9 BLU
38 | PFSSMKEPFIPQSS | 410.6 BLU
39 | VPGGMSIPGAPQGA | 139.5 BLU
40 | VPLPFGIPPFPMFP | 11610.9 BLU
41 | IARPLSVPGSPKVR | 382.9 BLU
42 | RLWLYAAPKRPKTF | 845.1 BLU
43 | ILVAYGLPVSPDEK | 166.6 BLU
44 | ILQELSLPSRPVMP | 51.9 BLU
45 | PEVKHFCPSTPIML | 93.7 BLU

Row | Sequence | The normalized value in BLU units (SPOT analysis, Myo5 SH3)
46 | VLFNLDHPMVPENL | 220.3 BLU
47 | PPLDFEQPRLPSTA | 192.3 BLU
48 | NALGLDPPPSPEDP | 240.8 BLU
49 | SFVHLTEPSQPLSD | 99.7 BLU
50 | PLFGLSIPKTPTLK | 121.7 BLU
51 | HPYMMVYPMSPPPP | 562.8 BLU
52 | KFPLMDKPSIPTLR | 431.6 BLU
53 | ILTCLPVPPPPVRP | 616.9 BLU
54 | SLFPLKTPISPGTS | 239.2 BLU
55 | DFSSYGPPGTPGYD | 108.5 BLU
56 | HPSGLNSPKLPPLP | 456.8 BLU
57 | GAGGLGCPALPYLA | 110.6 BLU
58 | IATMYPIPAYPDLL | 96.9 BLU
59 | MFELLCHPKVPVGM | 267.7 BLU
60 | TPSNMGSPGSPVNV | 156.2 BLU

Same assay, conditions: SPOT analysis of membrane-bound peptides, Myo5 SH3 domain; normalized value (see methods)

Row | Sequence | The normalized value in BLU units
61 | WEALKSVPIPPRKN | 379.0 BLU
62 | KSIPRTKPNVPPLQ | 343.4 BLU
63 | KFFKREYPDIPMIA | 154.6 BLU
64 | DIPLKQVPENPMPT | 62.9 BLU
65 | VEMKRKKPVRPVDI | 472.2 BLU
66 | TDLGKDIPFFPSSE | 146.5 BLU
67 | MQSKKEDPNRPKNL | 153.6 BLU
68 | DDNVRPSPISPSIN | 153.4 BLU
69 | VCHSKYIPLKPIQD | 298.3 BLU
70 | ATKRKTIPVYPPVQ | 273.7 BLU
71 | NPIPKSVPLHPKSG | 363.8 BLU
72 | TGYPRYFPQPPVQR | 5858.1 BLU
73 | ADDLKYIPPIPQDF | 86.7 BLU
74 | FYKEKAKPLEPILD | 87.7 BLU
75 | YAVDKIMPPTPAKK | 109.8 BLU
76 | LSKVRGRPMYPRPA | 752.4 BLU
77 | TLNDRQIPLSPDQM | 73.6 BLU
78 | TEFSRPIPPTPSGF | 163.0 BLU
79 | CRHLKLVPSTPMDI | 361.8 BLU

Row | Sequence | The normalized value in BLU units
80 | QLQEKLSPDLPDEE | 216.1 BLU
81 | VDSFKYEPLAPGND | 134.0 BLU
82 | SQKKKALPKQPKAS | 492.9 BLU
83 | SKIKRSRPPPPPMD | 5408.9 BLU
84 | INNNKMRPHLPPLS | 1004.0 BLU
85 | KRNSKHAPFIPVKP | 381.6 BLU
86 | DEALRYCPDAPIVL | 127.1 BLU
87 | EGRCRLFPHCPLGR | 141.3 BLU
88 | NITEKSPPKSPKHK | 292.3 BLU
89 | ELDTKTIPELPFCM | 53.2 BLU
90 | KVNFRRIPTGPDSP | 502.6 BLU
91 | LKDPKSFPPPPLKP | 252.9 BLU
92 | RTPSKPDPMEPENT | 186.9 BLU
93 | QSINRSIPSAPYGA | 208.2 BLU
94 | SKNWKLPPRLPHRA | 5572.0 BLU
95 | LFGIRNNPFIPITG | 169.8 BLU
96 | FYDFRSLPKVPTTQ | 336.7 BLU
97 | CLRARNGPVPPVHI | 207.8 BLU
98 | NVLLKAKPNDPAAT | 155.5 BLU

Same assay, conditions: SPOT analysis of membrane-synthesized peptides probed with Myo5 SH3 domain; normalized value

Row | Sequence | The normalized value in BLU units (SPOT analysis, Myo5 SH3)
99 | QTGSKTVPQAPQAP | 62.9 BLU
100 | LIWHKNKPTEPDNK | 155.4 BLU
101 | LNTMKKRPAPPSLP | 22346.5 BLU
102 | LLPTKLIPSIPGGK | 172.0 BLU
103 | GQIDRDKPSEPERT | 100.5 BLU
104 | HTIPKSGPIVPYVL | 163.7 BLU
105 | FVFFKSLPDLPKPQ | 859.9 BLU
106 | LDLSKYGPLPPSRA | 154.0 BLU
107 | LRISKPDPECPSKL | 246.3 BLU
108 | VLTVKMSPSLPDEI | 229.5 BLU
109 | KPAGRPIPPAPTHY | 189.4 BLU
110 | INTFKTLPTKPEMQ | 167.1 BLU
111 | TTTIKNRPVPPPLP | 1868.9 BLU
112 | REYIKSLPMYPAAP | 70.4 BLU
113 | GHKKKNLPKFPKNK | 789.2 BLU
114 | MKAYRANPPLPIDS | 123.1 BLU
115 | VKATKWPPKLPEIQ | 57.4 BLU
116 | NGMPRRIPDYPDAF | 223.3 BLU
117 | EFQSKSSPVPPASE | 78.8 BLU
118 | DEPIRYAPGDPIEK | 106.5 BLU
119 | TKFTKPKPKQPVLP | 445.1 BLU
120 | LPLPKLRPPRPTFA | 77883.2 BLU

Row | Sequence | The normalized value in BLU units (SPOT analysis, Myo5 SH3)
121 | PKCEKIEPLSPSFK | 116.4 BLU
122 | HKFVKSSPVVPFDD | 150.9 BLU
123 | LNFPKNIPTIPFYV | 255.7 BLU
124 | SILRKSSPEEPFMS | 144.2 BLU
125 | SSKIRPTPRKPSRM | 673.3 BLU
126 | VHVLKYAPDEPNSL | 191.3 BLU
127 | ITRARYMPQDPNIV | 190.2 BLU
128 | GTVTKTAPSFPQSS | 261.1 BLU
129 | IESLREIPYGPDFD | 115.6 BLU
130 | GRHLKNIPRIPIFC | 1042.1 BLU
131 | KALPKRRPSPPLQS | 1137.8 BLU
132 | GLMSKLGPNLPASI | 287.3 BLU
133 | VCTIRSTPSQPIHC | 244.9 BLU
134 | LQQRRYYPIFPGSI | 278.7 BLU
135 | FEEDKMTPSTPVRS | 248.5 BLU
136 | AKIDKVSPEDPWVL | 248.0 BLU
137 | YVNPRNLPSVPNGL | 179.8 BLU
138 | TDLFKPLPEPPTEL | 23.4 BLU
139 | HLVRKVAPTKPMYC | 477.5 BLU
140 | FHPEKLTPYTPMTG | 96.5 BLU
141 | FSKKKEAPEDPKNL | 148.1 BLU
142 | AKDYRFNPAIPLRI | 304.4 BLU
